This note sets out measurements from patent US11566022B2, “3-(5-methoxy-1-oxoisoindolin-2-yl)piperidine-2,6-dione derivatives and uses thereof” (NOVARTIS AG, priority 2019, dated 2023).

The target in this assay is HiBit-WIZ fusion protein (Homo sapiens, UniProt O95785+Q96SW2). The experiment in a line: Quantification of WIZ protein levels in HiBit tag fusion protein assay (WIZ HiBit assay in 293T cells). It is filed as cell-based. More on the design: Dmax: dose or concentration left out as unconfirmed. To be noted: for Dmax / remaining activity at up to 25 µM: HEK-293T; for Dmax / % degradation of WIZ (100-Amax): 100 minus Amax; for Dmax / remaining activity at up to 25 µM / % degradation of WIZ (100-Amax) / WIZ Amax: 293T cells; for Dmax: read-out: % degradation of WIZ (100-Amax); for remaining activity at up to 25 µM / WIZ Amax: DMSO-normalized, curve-fitted percentage of WIZ-HiBit remaining at 25 uM; for remaining activity at up to 25 µM: read-out: WIZ Amax; for DC50: WIZ HiBit assay in 293T cells, 10-point, 5-fold dose response, highest concentration 25 μM, about 18 hours, read-out: WIZ AC50; for % degradation of WIZ (100-Amax): at 25 uM.

The structures appear in SMILES notation.

Sequence of HiBit-WIZ fusion protein (O95785 whole entry, the tested form may be a part): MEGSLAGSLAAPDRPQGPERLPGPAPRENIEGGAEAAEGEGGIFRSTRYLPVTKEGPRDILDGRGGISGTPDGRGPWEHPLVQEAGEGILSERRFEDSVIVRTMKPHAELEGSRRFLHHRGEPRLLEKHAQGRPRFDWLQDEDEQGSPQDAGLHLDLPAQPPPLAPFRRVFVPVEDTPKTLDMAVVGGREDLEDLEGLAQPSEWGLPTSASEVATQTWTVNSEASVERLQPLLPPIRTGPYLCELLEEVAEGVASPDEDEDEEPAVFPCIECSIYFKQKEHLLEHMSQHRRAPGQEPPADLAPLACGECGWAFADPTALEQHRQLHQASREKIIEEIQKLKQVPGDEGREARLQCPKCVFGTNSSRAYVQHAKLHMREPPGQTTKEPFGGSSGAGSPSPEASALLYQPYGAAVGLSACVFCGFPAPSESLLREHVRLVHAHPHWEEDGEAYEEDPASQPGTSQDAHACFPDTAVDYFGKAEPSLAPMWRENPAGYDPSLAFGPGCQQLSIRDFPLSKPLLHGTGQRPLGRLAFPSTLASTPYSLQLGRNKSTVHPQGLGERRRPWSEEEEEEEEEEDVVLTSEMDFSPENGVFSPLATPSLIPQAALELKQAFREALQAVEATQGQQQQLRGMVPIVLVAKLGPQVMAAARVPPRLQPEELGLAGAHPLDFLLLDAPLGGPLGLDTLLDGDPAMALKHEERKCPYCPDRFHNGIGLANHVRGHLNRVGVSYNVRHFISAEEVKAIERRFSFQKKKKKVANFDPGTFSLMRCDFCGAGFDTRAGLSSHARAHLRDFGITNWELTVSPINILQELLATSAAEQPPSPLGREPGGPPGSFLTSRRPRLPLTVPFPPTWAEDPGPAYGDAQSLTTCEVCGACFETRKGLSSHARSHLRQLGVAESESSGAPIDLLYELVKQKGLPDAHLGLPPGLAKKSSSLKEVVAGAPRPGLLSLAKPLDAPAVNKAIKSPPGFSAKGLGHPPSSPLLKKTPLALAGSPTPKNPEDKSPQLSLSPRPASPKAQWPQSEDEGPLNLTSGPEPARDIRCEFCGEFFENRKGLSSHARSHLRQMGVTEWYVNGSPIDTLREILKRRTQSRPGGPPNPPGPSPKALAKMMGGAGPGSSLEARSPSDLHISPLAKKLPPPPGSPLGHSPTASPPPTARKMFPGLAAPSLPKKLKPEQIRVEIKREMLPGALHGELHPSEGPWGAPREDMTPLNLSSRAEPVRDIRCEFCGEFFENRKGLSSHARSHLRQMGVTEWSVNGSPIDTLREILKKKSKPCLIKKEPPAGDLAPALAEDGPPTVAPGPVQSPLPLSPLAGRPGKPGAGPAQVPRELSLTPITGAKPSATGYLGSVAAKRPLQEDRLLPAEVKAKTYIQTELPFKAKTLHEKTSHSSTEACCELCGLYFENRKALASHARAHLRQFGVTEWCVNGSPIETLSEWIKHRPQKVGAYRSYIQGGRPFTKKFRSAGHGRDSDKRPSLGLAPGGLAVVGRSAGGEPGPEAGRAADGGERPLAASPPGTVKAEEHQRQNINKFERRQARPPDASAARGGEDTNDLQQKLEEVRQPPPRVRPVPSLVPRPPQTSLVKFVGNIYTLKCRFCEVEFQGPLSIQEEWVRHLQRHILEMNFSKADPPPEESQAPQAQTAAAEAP
Sequence of HiBit-WIZ fusion protein (Q96SW2 whole entry, the tested form may be a part): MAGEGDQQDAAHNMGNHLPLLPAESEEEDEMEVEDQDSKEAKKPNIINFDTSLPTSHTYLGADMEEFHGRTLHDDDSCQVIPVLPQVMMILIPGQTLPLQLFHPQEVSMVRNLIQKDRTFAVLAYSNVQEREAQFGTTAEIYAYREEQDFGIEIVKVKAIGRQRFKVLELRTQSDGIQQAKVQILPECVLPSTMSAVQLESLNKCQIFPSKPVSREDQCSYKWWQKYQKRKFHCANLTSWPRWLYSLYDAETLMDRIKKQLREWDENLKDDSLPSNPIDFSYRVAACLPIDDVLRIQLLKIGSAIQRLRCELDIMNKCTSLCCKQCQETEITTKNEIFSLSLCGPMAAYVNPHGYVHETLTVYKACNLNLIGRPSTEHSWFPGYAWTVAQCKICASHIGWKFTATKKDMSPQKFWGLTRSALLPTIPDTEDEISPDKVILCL
Sequence of HiBit-WIZ fusion protein (Q16531 whole entry partner, the tested form may be a part): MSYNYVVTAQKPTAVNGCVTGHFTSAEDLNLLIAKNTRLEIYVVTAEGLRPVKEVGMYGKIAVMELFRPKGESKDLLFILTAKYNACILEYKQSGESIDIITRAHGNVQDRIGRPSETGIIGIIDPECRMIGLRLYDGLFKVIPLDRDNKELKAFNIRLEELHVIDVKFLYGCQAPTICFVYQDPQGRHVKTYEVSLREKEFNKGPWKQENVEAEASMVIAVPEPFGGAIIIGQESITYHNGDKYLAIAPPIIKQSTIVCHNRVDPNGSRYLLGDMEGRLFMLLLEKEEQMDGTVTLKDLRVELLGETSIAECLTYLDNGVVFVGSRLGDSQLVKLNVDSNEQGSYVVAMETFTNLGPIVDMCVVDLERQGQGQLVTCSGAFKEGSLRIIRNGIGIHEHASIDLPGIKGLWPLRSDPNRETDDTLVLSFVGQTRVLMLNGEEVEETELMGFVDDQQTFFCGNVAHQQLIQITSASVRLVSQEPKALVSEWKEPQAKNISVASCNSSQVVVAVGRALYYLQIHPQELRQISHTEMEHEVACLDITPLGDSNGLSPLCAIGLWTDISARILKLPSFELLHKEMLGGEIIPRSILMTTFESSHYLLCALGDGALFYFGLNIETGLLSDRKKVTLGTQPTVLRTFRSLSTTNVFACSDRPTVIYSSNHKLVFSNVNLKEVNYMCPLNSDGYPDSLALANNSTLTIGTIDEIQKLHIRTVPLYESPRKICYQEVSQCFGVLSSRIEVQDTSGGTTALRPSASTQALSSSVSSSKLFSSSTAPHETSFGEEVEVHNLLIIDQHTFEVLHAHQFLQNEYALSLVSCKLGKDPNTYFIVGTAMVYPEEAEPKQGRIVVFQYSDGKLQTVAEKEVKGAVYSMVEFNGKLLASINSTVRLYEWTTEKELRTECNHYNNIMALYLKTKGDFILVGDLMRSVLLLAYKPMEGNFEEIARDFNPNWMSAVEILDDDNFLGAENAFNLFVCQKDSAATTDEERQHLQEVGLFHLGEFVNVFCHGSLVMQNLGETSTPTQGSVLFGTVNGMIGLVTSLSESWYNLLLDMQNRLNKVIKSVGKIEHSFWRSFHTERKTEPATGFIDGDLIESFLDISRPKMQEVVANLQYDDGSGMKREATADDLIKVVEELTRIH

On to `CCN1CCCC(C)(C)C1COc1ccc2c(c1)CN(C1CCC(=O)NC1=O)C2=O` (single isomer, unassigned) [Compound I-17, 3-(5-((1-ethyl-3,3-dimethylpiperidin-2-yl)methoxy)-1-oxoisoindolin-2-yl)piperidine-2,6-dione], for which the Dmax was found to be 26.4%, the remaining activity at up to 25 µM was 73.6% and the DC50 is above 25000 nM.
As for `CCN1CCCC(C)(C)C1COc1ccc2c(c1)CN(C1CCC(=O)NC1=O)C2=O` (single isomer, unassigned) [Compound I-19, 3-(5-((1-ethyl-3,3-dimethylpiperidin-2-yl)methoxy)-1-oxoisoindolin-2-yl)piperidine-2,6-dione], the “% degradation of WIZ (100-Amax)” value is listed as 34.7%, the “WIZ Amax” value is recorded as 65.3% and the DC50 is above 25000 nM.
Regarding `CCN1CCC[C@H]1C(C)Oc1ccc2c(c1)CN(C1CCC(=O)NC1=O)C2=O` (single isomer, unassigned) [Compound I-25], the “% degradation of WIZ (100-Amax)” value is reported as 46.6%, the “WIZ Amax” value was found to be 53.4% and the DC50 is above 25000 nM.
The corresponding values for `CCN1CCC[C@H]1C(C)Oc1ccc2c(c1)CN(C1CCC(=O)NC1=O)C2=O` (single isomer, unassigned) [Compound I-27] are 15.6%, 84.4% and above 25000 nM.
For `CCC(Oc1ccc2c(c1)CN(C1CCC(=O)NC1=O)C2=O)[C@@H]1CCCN1` (single isomer, unassigned) [Compound I-44], the “% degradation of WIZ (100-Amax)” value is recorded as 10.3%, the remaining activity at up to 25 µM came to 89.7% and the DC50 is above 25000 nM.
Regarding `CCC(Oc1ccc2c(c1)CN(C1CCC(=O)NC1=O)C2=O)[C@@H]1CCCN1` (single isomer, unassigned) [Compound I-45], the “% degradation of WIZ (100-Amax)” value was determined as 21.3%, the “WIZ Amax” value amounted to 78.7% and the DC50 is above 25000 nM.
In the case of `O=C1CCC(N2Cc3cc(OC[C@H]4CCCCN4CC4CCOC4)ccc3C2=O)C(=O)N1` (single isomer, unassigned) [Compound I-211], the Dmax was 53.9%, the remaining activity at up to 25 µM was 46.1% and the DC50 amounted to 150 nM.
For the compound `O=C1CCC(N2Cc3cc(OC[C@H]4CCCCN4CC4CCOC4)ccc3C2=O)C(=O)N1` (single isomer, unassigned) [Compound I-213], the “% degradation of WIZ (100-Amax)” value was determined as 55.68%, the “WIZ Amax” value was found to be 44.32% and the DC50 came out at 120 nM.
Take `COC1CCC(CN2CCCCC2C(C)Oc2ccc3c(c2)CN(C2CCC(=O)NC2=O)C3=O)CC1` (single isomer, unassigned) [Compound I-219, 3-(5-(1-(1-((4-methoxycyclohexyl)methyl)piperidin-2-yl)ethoxy)-1-oxoisoindolin-2-yl)piperidine-2,6-dione]: the Dmax is 73.9%, the remaining activity at up to 25 µM was 26.1% and the DC50 stood at 1400 nM.
Regarding `CCN1CCC(F)(F)CC1COc1ccc2c(c1)CN(C1CCC(=O)NC1=O)C2=O` (single isomer, unassigned) [I-252 (Isomer 1), 3-(5-((1-ethyl-4,4-difluoropiperidin-2-yl)methoxy)-1-oxoisoindolin-2-yl)piperidine-2,6-dione], the “% degradation of WIZ (100-Amax)” value is 58.1%, the “WIZ Amax” value is given as 41.9% and the DC50 is 50 nM.
As for `CCN1CCC(F)(F)CC1COc1ccc2c(c1)CN(C1CCC(=O)NC1=O)C2=O` (single isomer, unassigned) [I-252 (Isomer 2), 3-(5-((1-ethyl-4,4-difluoropiperidin-2-yl)methoxy)-1-oxoisoindolin-2-yl)piperidine-2,6-dione], the “% degradation of WIZ (100-Amax)” value is on record as 77.1%, the “WIZ Amax” value was found to be 22.9% and the DC50 was determined as 11 nM.
The corresponding values for `CCN1CCC(F)(F)CC1COc1ccc2c(c1)CN(C1CCC(=O)NC1=O)C2=O` (single isomer, unassigned) [I-252 (Isomer 3), 3-(5-((1-ethyl-4,4-difluoropiperidin-2-yl)methoxy)-1-oxoisoindolin-2-yl)piperidine-2,6-dione] are 55.1%, 44.9% and 45 nM.
The corresponding values for `CCN1C2CCC(C2)C1COc1ccc2c(c1)CN(C1CCC(=O)NC1=O)C2=O` (single isomer, unassigned) [I-255 (Isomer 1), 3-(5-((endo-2-ethyl-2-azabicyclo[2.2.1]heptan-3-yl)methoxy)-1-oxoisoindolin-2-yl)piperidine-2,6-dione] are 73.2%, 26.8% and 12 nM.
In the case of `CCN1C2CCC(C2)C1COc1ccc2c(c1)CN(C1CCC(=O)NC1=O)C2=O` (single isomer, unassigned) [I-255 (Isomer 2), 3-(5-((endo-2-ethyl-2-azabicyclo[2.2.1]heptan-3-yl)methoxy)-1-oxoisoindolin-2-yl)piperidine-2,6-dione], the “% degradation of WIZ (100-Amax)” value came out at 28.8%, the “WIZ Amax” value turned out to be 71.2% and the DC50 was 98 nM.
The corresponding values for `CCN1C2CCC(C2)C1COc1ccc2c(c1)CN(C1CCC(=O)NC1=O)C2=O` (single isomer, unassigned) [I-255 (Isomer 3), 3-(5-((endo-2-ethyl-2-azabicyclo[2.2.1]heptan-3-yl)methoxy)-1-oxoisoindolin-2-yl)piperidine-2,6-dione] are 26.5%, 73.5% and 360 nM.
In the case of `CCN1C2CCC(C2)C1COc1ccc2c(c1)CN(C1CCC(=O)NC1=O)C2=O` (single isomer, unassigned) [I-255 (Isomer 4), 3-(5-((endo-2-ethyl-2-azabicyclo[2.2.1]heptan-3-yl)methoxy)-1-oxoisoindolin-2-yl)piperidine-2,6-dione], the “% degradation of WIZ (100-Amax)” value is 73.0%, the “WIZ Amax” value was determined as 27.0% and the DC50 amounted to 34 nM.
On to `COc1ccc(CN2CCCC[C@H]2COc2ccc3c(c2)CN(C2CCC(=O)NC2=O)C3=O)cc1F` (stereo partly drawn) [Compound I-50a], for which the Dmax worked out at 52.2%, the remaining activity at up to 25 µM is 47.8% and the DC50 is above 25000 nM.
The corresponding values for `O=C1CCC(N2Cc3cc(OC[C@@H]4CCCCN4Cc4cccc(N5CCCC5)c4)ccc3C2=O)C(=O)N1` (stereo partly drawn) [Compound I-50aa] are 95.1%, 4.9% and 412 nM.
On to `O=C1CCC(N2Cc3cc(OC[C@@H]4CCCCN4Cc4ccccc4OCCN4CCOCC4)ccc3C2=O)C(=O)N1` (stereo partly drawn) [Compound I-50ab], for which the Dmax was found to be 50.8%, the remaining activity at up to 25 µM stood at 49.2% and the DC50 is above 25000 nM.
The corresponding values for `Cc1nc[nH]c1CN1CCCC[C@H]1COc1ccc2c(c1)CN(C1CCC(=O)NC1=O)C2=O` (stereo partly drawn) [Compound I-50ac] are 92.3%, 7.7% and 578 nM.
The corresponding values for `COc1cc2[nH]nc(CN3CCCC[C@H]3COc3ccc4c(c3)CN(C3CCC(=O)NC3=O)C4=O)c2cc1OCc1ccccc1` (stereo partly drawn) [Compound I-50ae] are 53.1%, 46.9% and above 25000 nM.
The corresponding values for `O=C1CCC(N2Cc3cc(OC[C@@H]4CCCCN4Cc4n[nH]c5ccc(Oc6cccnc6)cc45)ccc3C2=O)C(=O)N1` (stereo partly drawn) [Compound I-50af] are 57.2%, 42.8% and 21100 nM.
Turning to `Cn1cncc1CN1CCCC[C@H]1COc1ccc2c(c1)CN(C1CCC(=O)NC1=O)C2=O` (stereo partly drawn) [Compound I-50ag], the Dmax was determined as 62.8%, the remaining activity at up to 25 µM worked out at 37.2% and the DC50 came to 15200 nM.
The corresponding values for `Cn1nnc2cc(CN3CCCC[C@H]3COc3ccc4c(c3)CN(C3CCC(=O)NC3=O)C4=O)ccc21` (stereo partly drawn) [Compound I-50ah] are 44.4%, 55.6% and above 25000 nM.
Regarding `O=C1CCC(N2Cc3cc(OC[C@@H]4CCCCN4Cc4ccc(-n5nccn5)cc4)ccc3C2=O)C(=O)N1` (stereo partly drawn) [Compound I-50ai], the Dmax was 77.8%, the remaining activity at up to 25 µM was 22.2% and the DC50 was found to be 591 nM.
As for `O=C1CCC(N2Cc3cc(OC[C@@H]4CCCCN4CC4CCN(Cc5ccccc5)CC4)ccc3C2=O)C(=O)N1` (stereo partly drawn) [Compound I-50aj], the Dmax was 99%, the remaining activity at up to 25 µM came out at 1% and the DC50 was 16 nM.
The corresponding values for `O=C1CCC(N2Cc3cc(OC[C@@H]4CCCCN4Cc4ccc(N5CCCC5)nc4)ccc3C2=O)C(=O)N1` (stereo partly drawn) [Compound I-50ak] are 81.3%, 18.7% and 347 nM.
On to `O=C1CCC(N2Cc3cc(OC[C@@H]4CCCCN4Cc4c[nH]cn4)ccc3C2=O)C(=O)N1` (stereo partly drawn) [Compound I-50al], for which the Dmax worked out at 54.1%, the remaining activity at up to 25 µM is 45.9% and the DC50 was above 25000 nM.
The corresponding values for `O=C1CCC(N2Cc3cc(OC[C@@H]4CCCCN4Cc4ccccc4OCC(=O)N4CCCCC4)ccc3C2=O)C(=O)N1` (stereo partly drawn) [Compound I-50am] are 40%, 60% and above 25000 nM.
With `O=C1CCC(N2Cc3cc(OC[C@H]4CCCCN4Cc4cn[nH]c4)ccc3C2=O)C(=O)N1` (stereo partly drawn) [Compound I-50an], the Dmax turned out to be 82.2%, the remaining activity at up to 25 µM was 17.8% and the DC50 worked out at 1710 nM.
The corresponding values for `Cc1noc(C)c1CN1CCCC[C@H]1COc1ccc2c(c1)CN(C1CCC(=O)NC1=O)C2=O` (stereo partly drawn) [Compound I-50ao] are 96.8%, 3.2% and 89 nM.
